Results taken from patent US11834663B2, “Fibrotic treatment” (Monash University, priority 2015, dated 2023).

Test system: human cardiac fibroblasts (HCFs)
Assay: Human cardiac fibroblasts stimulated with Ang II: α-SMA and collagen expression
Format: cell-based
Conditions: HCFs + Ang II 0.1 μM, HFI-419 0.01 to 1 μM, approx. 72 hours; FIG. 26
Description: Commercially available human cardiac fibroblasts (HCF, Catalog #6300, Sciencell, CA, USA) were grown in T75 flask maintained in an incubator at 37° C., 5% CO2. Complete media composition: M199 media (#11150-059, life technologies)+10% FBS (#10437-028, life technologies)+1% Fibroblast Growth Supplement-2 (#2382, ScienCell)+1% penicillin/streptomycin 10,000 U/ml antibiotics (#15140-122, Life Technologies). Fresh complete media was replenished every alternate day until culture reached 70% confluence in which media is replenished daily until it reached approximately 90% confluence in order to passage/subculture. To subculture, media was discarded and culture was rinsed with warm PBS. After which, culture was detached using warm 0.05% Trypsin+EDTA with gentle swirling of flask to make sure cells were not adherent to surface of flask. Trypsin was then neutralized with complete media and suspension was then transferred into a new falcon tube and centrifuged at 1000 rpm for 5 minutes. […]
Once treatment is complete, cells were washed with warm PBS and detached using Accutase (A6964, Sigma), with 5 minutes incubation at 37° C. […] The supernatant (˜20 ul) was transferred to a new tube and protein concentrations were measured using Biorad Lowry protein assay. Protein quantification of respective markers were performed via standard western blot analysis. […]

CCOC(=O)C1=C(NC(C)=O)Oc2cc(O)ccc2C1c1cccnc1 (centres unmarked) [HFI-419]
collagen production in human cardiac fibroblasts: dose-dependently decreased
myofibroblast expression (α-SMA) in human cardiac fibroblasts: dose-dependently decreased
